Test results as given in patent publication US4975434A, “Antiviral and anticancer cyclopentenyl cytosine” (priority 1989, dated 1990).
≈ marks a conversion by molar mass, not a printed value. Where “and” joins values, the source holds several entries; their conditions need not be identical. Identical values can stand only once. Entries after “also recorded” stand apart in the source; their conditions may differ.

What was measured:
M5076 sarcoma = test: In vivo antitumor test, M5076 sarcoma in mice
[1] = test system: Herpes simplex type 2, strain MS; test: Cytopathogenic inhibition test, HSV-2; type: cell-based
LOX Melanoma = test: Human tumor xenograft in athymic mice, LOX melanoma (intraperitoneal)
[2] = test system: MRC5 (diploid human embryonic lung cells); test: Toxicity to MRC5 host cells (gross cell morphology) in the CMV assay
[3] = test system: malignant human promyelocytic leukemia cell line, HL-60; test: Growth inhibition and differentiation of HL-60 cells (nitroblue tetrazolium reduction); type: cell-based
[4] = test system: Yellow Fever virus, strain Asibi; test: microbe, parasite or virus in culture; type: cell-based, Yellow Fever virus; host Vero cells
[5] = test system: Herpes simplex type 1 (TK+), strain E-377; test: Cytopathogenic inhibition test, HSV-1 TK+; type: cell-based
CTP levels = CTP levels in normal and tumor tissue of L1210 bearing mice; type: in vivo, mouse; details: normal vs tumor tissue of L1210 bearing mice
[6] = test system: Vaccinia, strain Lederle CA; test: microbe, parasite or virus in culture; type: cell-based
[7] = test system: Herpes simplex type 1 (TK-), strain HF; test: microbe, parasite or virus in culture; type: cell-based
[8] = test system: vaccinia virus (IHD strain); type: in vivo, mouse (CD-I)
MX-1 Mammary = test: Human tumor xenograft in athymic mice, MX-1 mammary (subrenal capsule); details: for % Tumor Inhibition: day 0 to 11; for % tumor weight inhibition: Table IV, QD1-9, day 0 to day 11
[9] = Table II Experiment 1, tumor IP, IP QD1-13, OD 0.5 mg/kg/injection

Nc1ccn([C@@H]2C=C(CO)[C@@H](O)[C@H]2O)c(=O)n1 [CPE-C]
% ILS (M5076 sarcoma; [9]): 5%
LCK (M5076 sarcoma; [9]): -2.0 log
activity (M5076 sarcoma; result in words): inactive
IC50 ([1]; Human alphaherpesvirus 2, Vero cells, strain MS, inhibition of virus-induced cytopathogenic effects, read-out: ID50 (the source's name)): 2.7 µg/mL (≈ 11.3 µM)
VR (virus rating) ([1]; Vero cells, strain MS): 2.3
antiviral activity ([1]; result in words): Potent activity
tumor cell kill (LOX Melanoma; 2.25 mg/kg, QD 1-9): two-log tumor cell kill
potency relative to 3DU (LOX Melanoma; LOX xenograft): about 100 times
% ILS (LOX Melanoma; Table III Experiment 1, tumor IP, IP QD1-9, OD 1.0 mg/kg/injection): 119%
% ILS (LOX Melanoma; Table III Experiment 2, tumor IP, IP QD1-9, OD 2.25 mg/kg/injection): 80%
% ILS (LOX Melanoma; Table IV, CPE-C 1.5 mg/kg, QD1-9): 58%
% ILS (LOX Melanoma; Table IV, CPE-C 2.25 mg/kg, QD1-9): 80%
difference in tumor burden between CPE-C and 3DU (LOX Melanoma; in vivo): five-log difference in tumor burden
increase in life span (LOX Melanoma; intraperitoneally implanted): about 100%
activity (LOX Melanoma; result in words): Good activity
Host cell toxicity (gross cell morphology) ([2]; 320 μg/ml): Slightly toxic
Host cell toxicity (gross cell morphology) ([2]; each of 100, 32, 10, 3.2 and 1.0 μg/ml): Very slightly toxic
inhibition of cell growth ([3]; continuous exposure for 5 days to 10^-8 to 10^-6 M): progressive inhibition of cell growth
differentiation ([3]; continuous exposure for 5 days to 10^-8 to 10^-6 M, general statement): differentiation to a non-malignant phenotype
cell population that reduced nitroblue tetrazolium ([3]; four days after exposure to 10^-7 M): 95%
VR (virus rating) ([4]; Vero cells, strain Asibi): 0.9
IC50 ([4]; Yellow fever virus, Vero, read-out: ID50): 5.05 µg/mL (≈ 21.1 µM)
TI (therapeutic index) ([4]; minimum toxic drug concentration / ID50, Vero cells): 0.1
IC50 ([5]; Human alphaherpesvirus 1, Vero cells, strain E-377, inhibition of virus-induced cytopathogenic effects, read-out: ID50 (the source's name)): 0.3 µg/mL (≈ 1.25 µM)
VR (virus rating) ([5]; Vero cells, strain E-377): 3.8
antiviral activity ([5]; result in words): greater than arabinosyl adenine (ara-A); also recorded: Potent activity
tissue specificity of CTP reduction (CTP levels): some tissuespecificity towards the tumor
potency relative to ara-A [6]: about 100 times
IC50 ([6]; Orthopoxvirus vaccinia, Vero, in Chlorocebus sabaeus, read-out: ID50): 0.1 µg/mL (≈ 0.418 µM)
VR (virus rating) ([6]; Vero cells, strain Lederle CA): 4.6
antiviral activity ([6]; result in words): very sensitive to CPE-C; also recorded: Potent activity
VR (virus rating) ([7]; Vero cells, strain HF, two determinations): 3.8 and 2.7
antiviral activity ([7]; result in words): greater than arabinosyl adenine (ara-A); also recorded: Potent activity
activity in vivo, mouse tail pox model ([8]; 1.5 mg/kg): good protection; also recorded: Excellent activity
Pox Count (mean value, 20 mice) ([8]; CPE-C 1.5 mg/kg, QD 1-7 subcutaneous, PBS control 45.8): 0.8
growth inhibition (MX-1 Mammary): 100%
potency relative to 3DU (MX-1 Mammary; MX-1 xenograft): about 100 times
% Tumor Inhibition (MX-1 Mammary; Table III Experiment 1, SRC, IP QD1-9, OD 1.5 mg/kg/injection): 100%
% Tumor Inhibition (MX-1 Mammary; Table III Experiment 2, SRC, IP QD1-9, OD 2.25 mg/kg/injection): 95%
% tumor weight inhibition (MX-1 Mammary; CPE-C 1.5 mg/kg): 94%
% tumor weight inhibition (MX-1 Mammary; CPE-C 2.25 mg/kg): 100%
activity (MX-1 Mammary; result in words): complete inhibition of tumor growth
